We go through 45 molecules from patent publication US12398111B2, “Triazine compounds and pharmaceutical use thereof” (Japan Tobacco Inc., priority 2014, dated 2025).

Molecules are shown by their SMILES. pIC50: −log10 of the molar value.

The first experiment concerns the target T1, human mPGES-1 (Homo sapiens, UniProt O14684).
T1 construct: made in house; host or cells: FreeStyle CHO-S cells (Chinese hamster ovary), transient transfection with pcDNA3.1(+)/human mPGES-1; microsome fraction used
T1 sequence (O14684 1-152): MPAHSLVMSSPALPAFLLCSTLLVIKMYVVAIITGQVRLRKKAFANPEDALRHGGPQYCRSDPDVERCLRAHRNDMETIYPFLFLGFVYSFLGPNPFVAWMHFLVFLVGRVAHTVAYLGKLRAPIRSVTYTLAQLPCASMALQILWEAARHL
Kind of experiment: Evaluation of human mPGES-1 enzyme inhibitory activity (PGE2 measured by HTRF, microsome fraction of CHO-S cells expressing human mPGES-1). The experiment is classed as biochemical. Conditions: IC50 value; microsome fraction of CHO-S cells expressing human mPGES-1, PGE2 by HTRF. The method in brief: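 Enzyme source: microsomes from CHO-S cells transfected with human mPGES-1 and cultured 48 hr, diluted to 5 μg/mL protein in reduced GSH (12.5 mmol/L KPB solution). Test articles were in 0.1 mol/L potassium phosphate pH 7.4, final DMSO 2% (v/v). PGE2 formed was quantified by HTRF.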
In general terms: TR-FRET usually uses a lanthanide donor and a delayed reading to cut background.
For orientation: pIC50 means the IC50 on a negative log10 scale, so that one unit is a factor of ten. A high value points to a small IC50. `CC(C)COc1ccc(-c2nc(O)nc(-c3cc(CNC(=O)C4(C(F)(F)F)CC4)ccc3Cl)n2)cc1` [Example 1-178, 1-trifluoromethylcyclopropanecarboxylic acid 4-chloro-3-[4-hydroxy-6-(4-isobutoxyphenyl)-1,3,5-triazin-2-yl]benzylamide]: the negative logarithm of the IC50 (pIC50) is 8.85.
The same measure, in the same setting: for `CC1(COc2ccc(-c3nc(O)nc(-c4cc(CNC(=O)C(C)(C)C(F)(F)F)ccc4Cl)n3)cc2)CC1` [Example 1-128, N-(4-chloro-3-{4-hydroxy-6-[4-(1-methylcyclopropylmethoxy)phenyl]-1,3,5-triazin-2-yl}benzyl)-3,3,3-trifluoro-2,2-dimethylpropionamide] the value was 8.89.
In the case of `Cc1cccc(COc2cccc(C(F)(F)F)c2-c2nc(O)nc(-c3ccc(C#Cc4ccccc4)cc3)n2)n1.Cl` [Example 2-98, 4-[2-(6-methylpyridin-2-ylmethoxy)-6-trifluoromethylphenyl]-6-(4-phenylethynylphenyl)-1,3,5-triazin-2-ol hydrochloride], the pIC50 was 8.43.
In turn, `CC(C)c1cc(-c2nc(O)nc(-c3cc(CNC(=O)C(C)(C)C(F)(F)F)ccc3Cl)n2)ccc1C(F)(F)F` [Example 1-130, N-{4-chloro-3-[4-hydroxy-6-(3-isopropyl-4-trifluoromethylphenyl)-1,3,5-triazin-2-yl]benzyl}-3,3,3-trifluoro-2,2-dimethylpropionamide] showed a pIC50 of 8.05.
In turn, `Cc1cccc(C)c1-c1nc(O)nc(-c2cccc(F)c2)n1` [Example 2-15] gave a negative-log IC50 (pIC50) of 4.79.
The molecule `CC1(C(=O)NCc2ccc(Cl)c(-c3nc(O)nc(-c4ccccc4)n3)c2)CCCC1` [Example 1-73] gave a pIC50 of 9.22.
`Cc1cccc(C)c1-c1nc(O)nc(-c2cccc(OCc3ccccc3)c2)n1` [Example 2-29] had a negative-log IC50 (pIC50) of 6.30.
On the same count and under the same terms, for `COCc1cccc(-c2nc(O)nc(-c3cc(CNC(=O)C(C)(C)C)ccc3Cl)n2)c1` [Example 1-75] the value was 8.17; for `CC(C)Cc1ccc(-c2nc(O)nc(-c3cc(CC(=O)NC(C)(C)C)ccc3Cl)n2)cc1` [Example 1-101], 8.24; for `CC(C)COCc1ccc(Cl)c(-c2nc(O)nc(-c3ccc(C#CC4CCCCC4)cc3)n2)c1` [Example 1-219], 7.39.
The same measure, in the same setting: for `CCc1cccc(-c2nc(O)nc(-c3cc(CNC(=O)C(C)(C)C(F)(F)F)ccc3Cl)n2)c1` [Example 1-110] the value was 9.05.
Same read-out and setting: with `CCCCc1ccc(-c2nc(O)nc(-c3cc(CNC(=O)C(C)(C)C(F)(F)F)ccc3Cl)n2)cc1` [Example 1-180] the figure was 8.39; with `COCc1ccc(Cl)c(-c2nc(O)nc(-c3ccc(OCC(C)(C)C)cc3)n2)c1` [Example 1-197], 6.54.
Molecule `Cc1cccc(COc2cccc(C(F)(F)F)c2-c2nc(O)nc(-c3ccc(C#Cc4ccccc4)nc3)n2)n1` [Example 2-99] had a pIC50 of 8.77.
Turning to `Cc1ccc(COc2cccc(Cl)c2-c2nc(O)nc(-c3ccc(C(F)(F)F)cc3)n2)cc1` [Example 2-56], the pIC50 is 7.74.
`COc1ccc(C#Cc2ccc(-c3nc(O)nc(-c4c(OCc5cccc(C)n5)cccc4C(F)(F)F)n3)cc2)cc1` [Example 2-126]: the pIC50 is 8.34.
Still for that read-out and setting: with `CO[C@](C)(C(=O)NCc1ccc(Cl)c(-c2nc(O)nc(-c3ccccc3)n2)c1)C(F)(F)F` [Example 1-87] the figure was 9.10.
The molecule `CC(C)(C(=O)NCc1ccc(Cl)c(-c2nc(O)nc(-c3ccc(OCCC(F)(F)F)cc3)n2)c1)C(F)(F)F` [Example 1-142] had a pIC50 of 9.30.
In turn, `O=C(NCc1ccc(Cl)c(-c2nc(O)nc(-c3ccccc3)n2)c1)C1(C(F)(F)F)CCCC1` [Example 1-68] had a pIC50 of 9.52.
Still for that read-out and setting: with `CCCC1(CCC)CN(Cc2ccc(Cl)c(-c3nc(O)nc(-c4ccccc4)n3)c2)C1=O` [Example 1-260] the figure was 6.83; with `Cc1cccc(COc2cccc(C(F)(F)F)c2-c2nc(O)nc(-c3ccc(C#Cc4cccc(Cl)c4)cc3)n2)n1` [Example 2-123], 7.92; with `CCC(C)(C)C(=O)N(C)Cc1ccc(Cl)c(-c2nc(O)nc(-c3ccccc3)n2)c1` [Example 1-231], 7.35.
`O=C(NCc1ccc(Cl)c(-c2nc(O)nc(-c3cccc(C(F)(F)F)c3)n2)c1)C1(C(F)(F)F)CCCC1` [Example 1-79] showed a pIC50 of 8.92.
On to `CC(C)(C(=O)NCc1ccc(Cl)c(-c2nc(O)nc(-c3ccc(F)c(Cl)c3)n2)c1)C(F)(F)F` [Example 1-153], for which the pIC50 is 9.30.
The same measure, in the same setting: for `CCOc1cc(-c2nc(O)nc(-c3c(C)cccc3C)n2)ccc1Cl` [Example 2-52] the value was 7.00.
As for `Cc1cccc(Cl)c1-c1nc(O)nc(-c2ccc(C(F)(F)F)cc2)n1` [Example 2-19], the pIC50 is 6.68.
`Cc1cccc(C)c1-c1nc(O)nc(-c2ccc(C#Cc3ccccc3)cc2)n1` [Example 2-11]: the pIC50 is 8.22.
Same read-out and setting: with `CC(C)(C)c1cccc(-c2nc(O)nc(-c3cc(CNC(=O)C4(C(F)(F)F)CCCC4)ccc3Cl)n2)c1` [Example 1-80] the figure was 8.51; with `Cc1cc(Cl)c(-c2nc(O)nc(-c3ccc(OCC4CC4)cc3)n2)cc1CNC(=O)C(C)(C)C(F)(F)F` [Example 3-17], 9.10.
On to `CC(C)Cc1cccc(-c2nc(O)nc(-c3cc(CNC(=O)C(C)(C)C(F)(F)F)ccc3Cl)n2)c1` [Example 1-95], for which the pIC50 is 8.68.
Same read-out and setting: with `COc1ccc(F)c(Cl)c1-c1nc(O)nc(-c2ccc(C(F)(F)F)cc2)n1` [Example 3-11] the figure was 7.03; with `Cc1c(CNS(=O)(=O)C(C)(C)C)ccc(Cl)c1-c1nc(O)nc(-c2ccc(C(F)(F)F)cc2)n1` [Example 3-10], 7.80; with `Oc1nc(-c2ccc(C#Cc3ccccc3)cc2)nc(-c2c(Cl)cccc2OCc2ccccn2)n1` [Example 2-80], 8.80.
The same measure, in the same setting: for `Cc1cccc(COc2cccc(Cl)c2-c2nc(O)nc(-c3ccc(C#Cc4ccccc4)cc3)n2)n1` [Example 2-87] the value was 8.74; for `CCCCc1ccc(-c2nc(O)nc(-c3cc(CNC(=O)[C@@](C)(OC)C(F)(F)F)ccc3Cl)n2)cc1` [Example 1-181], 8.62; for `CC(C)COc1ccc(-c2nc(O)nc(-c3cc(CNC(=O)C(C)(C)C(F)(F)F)ccc3Cl)n2)cc1C(F)(F)F` [Example 1-120], 7.32.
With `CC(C)(C)COc1ccc(-c2nc(O)nc(-c3cc(CNC(=O)C(C)(C)C(F)(F)F)ccc3C(F)(F)F)n2)cc1` [Example 1-208], the pIC50 was 7.80.
Consider `CC1CCC(CO)(C(=O)NCc2ccc(Cl)c(-c3nc(O)nc(-c4ccccc4)n3)c2)CC1` (single isomer, unassigned) [Example 1-256], for which the pIC50 is 7.01.
Same read-out and setting: for `Cc1ccc(Cl)c(-c2nc(O)nc(-c3ccc(C(F)(F)F)cc3)n2)c1` [Example 1-4] the value was 7.60; for `CC(C)(C)C(=O)NCc1ccc(Cl)c(-c2nc(O)nc(-c3ccc(C(F)(F)F)cc3)n2)c1` [Example 1-24], 9.22.
As for `Oc1nc(-c2ccc(C#CC3CCCC3)cc2)nc(-c2c(Cl)cccc2OCc2ccccn2)n1` [Example 2-91], the negative-log IC50 (pIC50) is 8.80.
`COC(=O)NCc1ccc(Cl)c(-c2nc(O)nc(-c3ccc(C(F)(F)F)cc3)n2)c1` [Example 1-22] showed a pIC50 of 8.57.
`CC(C)c1cc(-c2nc(O)nc(-c3cc(CNC(=O)C(C)(C)C(F)(F)F)ccc3Cl)n2)ccc1F` [Example 1-117] showed a pIC50 of 8.80.
`COc1ccc(F)c(Cl)c1-c1nc(O)nc(-c2ccc(OCc3ccccc3)cc2)n1` [Example 3-12]: the pIC50 was 7.55.
Regarding `CCCCCOc1ccc(-c2nc(O)nc(-c3c(C)cccc3C)n2)cc1` [Example 2-69], the pIC50 is 7.08.

The subject of another experiment is prostaglandins in guinea pig secondary aqueous humor. Description: Effect on prostaglandin composition in guinea pig aqueous humor (instillation of 0.003% ophthalmic solution, LC/MS/MS). The experiment is classed as in vivo, Hartley male guinea pig. The note with it: 24 hr after instillation of 0.003% ophthalmic solution. The method, then:
A test article was dissolved in saline containing 0.5% polysorbate80 (Fluka) and 0.003% ophthalmic solution (pH 7.0-8.0) was prepared. The test article was administered to Hartley male guinea pig by instillation of 20 μL thereof to one eye by using a micropipette. After instillation, the lacrimal part was lightly fixed by gently pressing the lower eyelid for about 15 seconds. The opposite eye was treated in the same manner. To the vehicle group was administered the medium (0.5% polysorbate-containing saline) by a method similar to that for the test article. After 23 hr from the instillation, Mydrin P (registered trade mark) 0.5% ophthalmic solution (Santen Pharmaceutical Co., Ltd., general name: tropicamide/phenylephrine hydrochloride) was dropwisely added by one drop to the both eyes of a guinea pig to cause mydriasis. The guinea pig was anesthetized with Escain (registered trade mark) inhalation anesthetics (Pfizer Inc., general name: isoflurane), the cornea of the both eyes was tapped with a 30G injection needle, and the leaked aqueous humor (primary aqueous humor) was collected. One hour later (24 hr after instillation), the guinea pig was anesthetized again with isoflurane, and the secondary aqueous humor was collected in the same manner. The concentration of prostaglandins in the secondary aqueous humor obtained from each group (4 guinea pigs, 8 eyes) was measured by the LC/MS/MS system (Ultra high performance liquid chromatography: Nexera (registered trademark) manufactured by Shimadzu Corporation, mass spectrometer: […]), and the concentration ratio of each prostaglandin concentration relative to the total of all prostaglandin concentrations was calculated.
In the case of `CC(C)COc1ccc(-c2nc(O)nc(-c3cc(CNC(=O)C4(C(F)(F)F)CC4)ccc3Cl)n2)cc1` [Example 1-178, 1-trifluoromethylcyclopropanecarboxylic acid 4-chloro-3-[4-hydroxy-6-(4-isobutoxyphenyl)-1,3,5-triazin-2-yl]benzylamide], the “6-keto-PGF1α (%)” value stood at 36.6%, the “PGD2 (%)” value amounted to 20.1%, the “PGE2 (%)” value is 30% and the “PGF2α (%)” value turned out to be 13%. Besides, the “TXB2 (%)” value stood at 0.3%.
On to `CC1(COc2ccc(-c3nc(O)nc(-c4cc(CNC(=O)C(C)(C)C(F)(F)F)ccc4Cl)n3)cc2)CC1` [Example 1-128, N-(4-chloro-3-{4-hydroxy-6-[4-(1-methylcyclopropylmethoxy)phenyl]-1,3,5-triazin-2-yl}benzyl)-3,3,3-trifluoro-2,2-dimethylpropionamide], for which the “6-keto-PGF1α (%)” value worked out at 29.7%, the “PGD2 (%)” value was 19.3%, the “PGE2 (%)” value was 36.2% and the “PGF2α (%)” value stood at 13.9%. For the same molecule, the “TXB2 (%)” value is 0.8%.
`Cc1cccc(COc2cccc(C(F)(F)F)c2-c2nc(O)nc(-c3ccc(C#Cc4ccccc4)cc3)n2)n1.Cl` [Example 2-98, 4-[2-(6-methylpyridin-2-ylmethoxy)-6-trifluoromethylphenyl]-6-(4-phenylethynylphenyl)-1,3,5-triazin-2-ol hydrochloride]: the “6-keto-PGF1α (%)” value came out at 27.3%, the “PGD2 (%)” value stood at 20.1%, the “PGE2 (%)” value is 37.8% and the “PGF2α (%)” value was 14.8%. The “TXB2 (%)” value is listed as 0%.
`CC(C)c1cc(-c2nc(O)nc(-c3cc(CNC(=O)C(C)(C)C(F)(F)F)ccc3Cl)n2)ccc1C(F)(F)F` [Example 1-130, N-{4-chloro-3-[4-hydroxy-6-(3-isopropyl-4-trifluoromethylphenyl)-1,3,5-triazin-2-yl]benzyl}-3,3,3-trifluoro-2,2-dimethylpropionamide]: the “6-keto-PGF1α (%)” value was 11.2%, the “PGD2 (%)” value came to 6.2%, the “PGE2 (%)” value amounted to 73.6% and the “PGF2α (%)” value came to 8%. The “TXB2 (%)” value was 1%.
